# Measured values: patent publication US20260083708A1, “IL-17 MODULATORS AND USES THEREOF” (NNOCARE PHARMA INC., priority 2024, published 2026)
# Experiments:
# [1] = system: IL-17AA-induced IL-17 signaling pathway; test: Inhibition of IL-17AA-induced IL-17 signaling pathway in HEK-Blue IL-17 reporter cells (SEAP); format: cell-based; details: Homo sapiens; HEK-Blue IL-17 cells, IL-17AA 2.5 ng/mL, 20 hours; read-out: IC50 for Inhibiting IL-AA Signaling
# Excerpt: Example 43. Inhibition of IL-17AA-Induced IL-17 Signaling Pathway
# (§1) Interleukin-17 (IL-17) reporter cell line (HEK-Blue IL-17, InvivoGen, Catalog Number hkb-i117) is created by genetically engineering human IL-17RA/IL-17RC heterodimeric receptor and downstream adapter protein ACT1 into human embryonic kidney 293 cells (HEK293). These cells also express secreted embryonic alkaline phosphatase (SEAP) reporter gene induced by NF-κB and AP-1. Therefore, IL-17AA can activate NF-κB and AP-1 signaling pathways inside the cells by binding to IL-17RA/RC on cell membrane, leading to expression of SEAP protein. After a colorimetric reaction between SEAP protein and Quanti-Blue solution, the absorbance at 620 nm is measured using a microplate reader (BioTek H1M, Agilent, Catalog Number SH1M-SN) to determine IL-17AA-activated signaling pathway.
# (§2) In the experiment, HEK-Blue IL-17 cells were cultured at 37° C. under 5% CO2 conditions using the recommended medium from InvivoGen's instruction. Compounds were serially diluted starting from 10 μM. 4 μL of each compound solution was added to 32 μL of cells (10,000 cells) at 37° C. for 1 hour. After pre-incubation, 4 μL of IL-17AA with a final concentration of 2.5 ng/mL (Sino Biological, Catalog Number 12047-HNAS) was added to the cells, and incubation was continued for additional 20 hours. After incubation, 5 μL of cell culture supernatant was added to 45 μL of Quanti-Blue for the colorimetric reaction. The group without tested compound had the highest absorbance at 620 nm, and the group without IL-17AA had the lowest absorbance at 620 nm.
# (§3) Therefore, the percentage of inhibition of tested compound was calculated as
# (§4) Experimental results were analyzed using XLfit (IDBS) for 4-parameter nonlinear fitting analysis to provide the IC50 value for each tested compound (Table 1).
# [2] = target: T1, IL-17AA and IL-17RA (Homo sapiens, UniProt Q16552); test: Competitive inhibition of human IL-17AA and IL-17RA binding (HTRF); details: recombinant IL-17AA (His-tag) and IL-17RA (hFc-tag); read-out: IC50 for Inhibiting IL-AA/IL-RA Binding
# T1 construct: purchased Sino Biological 12047-H07B (IL-17AA); 10895-H02H (IL-17RA)
# T1 sequence (Q16552 24-155): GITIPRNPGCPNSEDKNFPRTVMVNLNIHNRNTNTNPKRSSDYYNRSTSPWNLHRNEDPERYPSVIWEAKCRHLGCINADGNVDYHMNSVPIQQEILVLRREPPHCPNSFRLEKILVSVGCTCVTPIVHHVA
# Protocol: Example 42. Competitive Inhibition of Human IL-17AA and IL-17RA Binding
# Recombinant IL-17AA (His-tag, Catalog Number 12047-H07B) and IL-17RA (hFc-tag, Catalog Number 10895-H02H) were purchased from Sino Biological. In the experiment, 10 μL of IL-17AA (1 nM) or IL-17RA (1 nM) was added to 10 μL of anti-6His-Tb (0.4 nM, Revvity, Catalog Number 61HISTLF) or anti-human IgG-d2 (1 μg/mL, anti-human IgG-d2, Revvity, Catalog Number 61HFCDAF), respectively and incubated at room temperature for 1 hour. Compounds were serially diluted starting from 10 μM. 5 μL of each compound solution was incubated with 5 μL of a mixture of IL-17AA and anti-6His-Tb at room temperature for 2 hours. After pre-incubation, to which was added 10 μL of a mixture of IL-17RA and anti-human IgG-d2, and incubation was continued for additional 20 minutes. Subsequently, a microplate reader (Envision, PerkinElmer) was used to detect fluorescence intensity at 615 nm and 665 nm, and the ratio of intensity thereof indicates the degree of IL-17AA and IL-17RA interaction. The ratio of intensity in the absence of tested compound was the highest value of binding between IL-17AA and IL-17RA, and the ratio of intensity in the absence of IL-17AA was the lowest value.
# as §3
# Experimental results were analyzed using XLfit (IDBS) for 4-parameter nonlinear fitting analysis, to provide the IC50 value for each tested compound (Table 1).
# [3] = system: IL-17AF-induced IL-17 signaling pathway; test: Inhibition of IL-17AF-induced IL-17 signaling pathway; format: cell-based; details: Homo sapiens; IL-17AF used instead of IL-17AA; read-out: IC50 for Inhibiting IL-AF Signaling
# Excerpt: as §1, §2, §3, §4
# Example 44. Inhibition of IL-17AF-Induced IL-17 Signaling Pathway
# The same experimental procedure to Example […] was followed where IL-17AF was used instead of IL-17AA.
IC50 [1],IC50 [2],IC50 [3],SMILES
0.074 µM,0.125 µM,0.232 µM,"CCn1nccc1C(=O)N[C@H](C(=O)Nc1ccc([C@H](C)[C@H](NC(=O)COC)c2nncn2CC2CC2)cc1F)C(C1CC1)C1CC1 [Compound 37, N-((S)-1,1-dicyclopropyl-3-((4-((1S,2S)-1-(4-(cyclopropylmethyl)-4H-1,2,4-triazol-3-yl)-1-(2-methoxyacetamido)propan-2-yl)-2-fluorophenyl)amino)-3-oxopropan-2-yl)-1-ethyl-1H-pyrazole-5-carboxamide]"
0.0044 µM,0.0019 µM,0.029 µM,"CCC(=O)N[C@@H](c1ncnn1CC1CC1)[C@@H](C)c1ccc(NC(=O)[C@@H](NC(=O)c2ccnn2C(C)C)C(C2CC2)C2CC2)c(F)c1 [Compound 44, N-((S)-1,1-dicyclopropyl-3-((4-((1R,2S)-1-(1-(cyclopropylmethyl)-1H-1,2,4-triazol-5-yl)-1-propionamidopropan-2-yl)-2-fluorophenyl)amino)-3-oxopropan-2-yl)-1-isopropyl-1H-pyrazole-5-carboxamide]"
> 2 µM,1.98 µM,> 2 µM,"[2H]C([2H])([2H])n1nccc1C(=O)N[C@H](C(=O)Nc1ccc([C@H](C)[C@H](NC(=O)CC)c2ncnn2CC2CC2)cc1F)C(C1CC1)C1CC1 [Compound 87, N-((S)-1,1-dicyclopropyl-3-((4-((1S,2S)-1-(1-(cyclopropylmethyl)-1H-1,2,4-triazol-5-yl)-1-propionamidopropan-2-yl)-2-fluorophenyl)amino)-3-oxopropan-2-yl)-1-(methyl-d3)-1H-pyrazole-5-carboxamide]"
0.0026 µM,0.0045 µM,0.004 µM,"CCn1nccc1C(=O)N[C@H](C(=O)Nc1ccc([C@H](C)[C@@H](NC(=O)COC)c2ncnn2CC2CC2)cc1F)C(C1CC1)C1CC1 [Compound 19, N-((S)-1,1-dicyclopropyl-3-((4-((1R,2S)-1-(1-(cyclopropylmethyl)-1H-1,2,4-triazol-5-yl)-1-(2-methoxyacetamido)propan-2-yl)-2-fluorophenyl)amino)-3-oxopropan-2-yl)-1-ethyl-1H-pyrazole-5-carboxamide]"
0.0033 µM,0.0017 µM,0.0039 µM,"Cc1nonc1C(=O)N[C@H](C(=O)Nc1ccc([C@H](C)[C@@H](NC(=O)COC2CC2)c2ncnn2CC2CC2)cc1F)C(C1CC1)C1CC1 [Compound 60, N-((S)-1-((4-((1R,2S)-1-(2-cyclopropoxyacetamido)-1-(1-(cyclopropylmethyl)-1H-1,2,4-triazol-5-yl)propan-2-yl)-2-fluorophenyl)amino)-3,3-dicyclopropyl-1-oxopropan-2-yl)-4-methyl-1,2,5-oxadiazole-3-carboxamide]"
0.115 µM,0.057 µM,0.313 µM,"CCn1nccc1C(=O)N[C@H](C(=O)Nc1ccc([C@H](C)[C@@H](NC(=O)COC)c2nc(C)nn2CC2CC2)cc1F)C(C1CC1)C1CC1 [Compound 25, N-((S)-1,1-dicyclopropyl-3-((4-((1R,2S)-1-(1-(cyclopropylmethyl)-3-methyl-1H-1,2,4-triazol-5-yl)-1-(2-methoxyacetamido)propan-2-yl)-2-fluorophenyl)amino)-3-oxopropan-2-yl)-1-ethyl-1H-pyrazole-5-carboxamide]"
0.016 µM,0.0094 µM,0.027 µM,"[2H]C([2H])([2H])n1nccc1C(=O)N[C@H](C(=O)Nc1ccc([C@H](C)[C@@H](NC(=O)CC)c2ncn(CC3CC3)n2)cc1F)C(C1CC1)C1CC1 [Compound 43, N-((S)-1,1-dicyclopropyl-3-((4-((1R,2S)-1-(1-(cyclopropylmethyl)-1H-1,2,4-triazol-3-yl)-1-propionamidopropan-2-yl)-2-fluorophenyl)amino)-3-oxopropan-2-yl)-1-(methyl-d3)-1H-pyrazole-5-carboxamide]"
0.032 µM,0.018 µM,0.049 µM,"CCC(=O)N[C@@H](c1ncn(CCNC2CC2)n1)[C@@H](C)c1ccc(NC(=O)[C@@H](NC(=O)c2nonc2C)C(C2CC2)C2CC2)c(F)c1 [Compound 80, N—((S)-1,1-dicyclopropyl-3-((4-((1R,2S)-1-(1-(2-(cyclopropylamino)ethyl)-1H-1,2,4-triazol-3-yl)-1-propionamidopropan-2-yl)-2-fluorophenyl)amino)-3-oxopropan-2-yl)-4-methyl-1,2,5-oxadiazole-3-carboxamide]"
2.21 µM,0.182 µM,2.73 µM,"CCn1nccc1C(=O)N[C@H](C(=O)Nc1ccc([C@H](C)[C@@H](NC(=O)COC)c2ncnn2CCN2CCN(C)CC2)cc1F)C(C1CC1)C1CC1 [Compound 52, N-((S)-1,1-dicyclopropyl-3-((2-fluoro-4-((1R,2S)-1-(2-methoxyacetamido)-1-(1-(2-(4-methylpiperazin-1-yl)ethyl)-1H-1,2,4-triazol-5-yl)propan-2-yl)phenyl)amino)-3-oxopropan-2-yl)-1-ethyl-1H-pyrazole-5-carboxamide]"
0.376 µM,0.048 µM,0.517 µM,"CCC(=O)N[C@@H](c1ncnn1CC1CC1)[C@@H](C)c1ccc(NC(=O)[C@@H](NC(=O)c2ccnn2CC)C2CCC3(CC2)CC(F)(F)C3)c(F)c1 [Compound 78, N-((S)-2-((4-((1R,2S)-1-(1-(cyclopropylmethyl)-1H-1,2,4-triazol-5-yl)-1-propionamidopropan-2-yl)-2-fluorophenyl)amino)-1-(2,2-difluorospiro[3.5]nonan-7-yl)-2-oxoethyl)-1-ethyl-1H-pyrazole-5-carboxamide]"
0.019 µM,0.006 µM,0.036 µM,"CCC(=O)N[C@@H](c1ncnn1CCNC1CC1)[C@@H](C)c1ccc(NC(=O)[C@@H](NC(=O)c2nonc2C)C(C2CC2)C2CC2)c(F)c1 [Compound 79, N-((S)-1,1-dicyclopropyl-3-((4-((1R,2S)-1-(1-(2-(cyclopropylamino)ethyl)-1H-1,2,4-triazol-5-yl)-1-propionamidopropan-2-yl)-2-fluorophenyl)amino)-3-oxopropan-2-yl)-4-methyl-1,2,5-oxadiazole-3-carboxamide]"
0.0025 µM,0.0032 µM,0.01 µM,"CCn1nccc1C(=O)N[C@H](C(=O)Nc1ccc([C@H](C)[C@@H](NC(=O)COC)c2nnnn2CC2CC2)cc1F)C(C1CC1)C1CC1 [Compound 24, N-((S)-1,1-dicyclopropyl-3-((4-((1R,2S)-1-(1-(cyclopropylmethyl)-1H-tetrazol-5-yl)-1-(2-methoxyacetamido)propan-2-yl)-2-fluorophenyl)amino)-3-oxopropan-2-yl)-1-ethyl-1H-pyrazole-5-carboxamide]"
0.0036 µM,0.0011 µM,0.0059 µM,"Cc1nonc1C(=O)N[C@H](C(=O)Nc1ccc([C@H](C)[C@@H](NC(=O)COC(F)(F)F)c2ncnn2CC2CC2)cc1F)C(C1CC1)C1CC1 [Compound 64, N-((S)-1,1-dicyclopropyl-3-((4-((1R,2S)-1-(1-(cyclopropylmethyl)-1H-1,2,4-triazol-5-yl)-1-(2-(trifluoromethoxy)acetamido)propan-2-yl)-2-fluorophenyl)amino)-3-oxopropan-2-yl)-4-methyl-1,2,5-oxadiazole-3-carboxamide]"
